Measured values: patent publication US6962909B2, “Treatment of neovascularization disorders with squalimine” (Genaera Corporation, priority 1995, dated 2005)

Tested on: human microvascular cells
Assay: Endothelial cord formation assay; as to Effect on endothelial cord formation: key: + = Inhibition of angiogenesis; − = No inhibition of angiogenesis; T = Toxic; *= cell rounding @ 10 µg/ml
Type: cell-based
Method in brief: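 Human microvascular endothelial cells plated on collagen matrix with VEGF and basic fibroblast growth factor; compound effect assessed on resulting cord-like tubular structures.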

## CC(CC[C@@H](OS(=O)(=O)O)C(C)C)[C@H]1CCC2C3C(CC[C@@]21C)[C@@]1(C)CC[C@H](NCCCNCCCCN)C[C@@H]1C[C@H]3O (some centres unmarked) [squalamine]
  Concentration that inhibits cord formation: about 0.1 μg/ml
0.01 μg/ml
  Effect on endothelial cord formation: −
0.1 μg/ml
  Effect on endothelial cord formation: +
1.0 μg/ml
  Effect on endothelial cord formation: +
10.0 μg/ml
  Effect on endothelial cord formation: +
